Assay results reported in patent publication US20040013730A1, “Non-hormonal vaginal contraceptive” (priority 2003, published 2004).

Legend:
human cervical mucus = test: Cervical mucus score (WHO): viscosity, ferning, spinnbarkeit, cellularity, pH; details: for TOTAL cervical mucus score: pH not included
human sperm = test: Efficacy of metal salts, albumin and dextran on motility of human sperm in vitro
[1] = ascorbic acid 0.31%, fourth sample (undated)
[2] = ascorbic acid 0.31%, sample Jun. 22, 2000
[3] = ascorbic acid 0.31%, sample Jun. 23, 2000
[4] = ascorbic acid 0.31%, third sample (undated)
[5] = ascorbic acid 0.63%, fourth sample (undated)
[6] = ascorbic acid 0.63%, sample Jun. 22, 2000
[7] = ascorbic acid 0.63%, sample Jun. 23, 2000
[8] = ascorbic acid 0.63%, third sample (undated)
[9] = ascorbic acid 1%, fourth sample (undated)
[10] = ascorbic acid 1%, sample Jun. 22, 2000
[11] = ascorbic acid 1%, sample Jun. 23, 2000
[12] = ascorbic acid 1%, third sample (undated)
[13] = ascorbic acid 1.25%, fourth sample (undated)
[14] = ascorbic acid 1.25%, sample Jun. 22, 2000
[15] = ascorbic acid 1.25%, sample Jun. 23, 2000
[16] = ascorbic acid 1.25%, third sample (undated)
[17] = ascorbic acid 2.50%, fourth sample (undated)
[18] = ascorbic acid 2.50%, sample Jun. 22, 2000
[19] = ascorbic acid 2.50%, sample Jun. 23, 2000
[20] = ascorbic acid 2.50%, third sample (undated)
[21] = ascorbic acid 5%, fourth sample (undated)
[22] = ascorbic acid 5%, sample Jun. 22, 2000
[23] = ascorbic acid 5%, sample Jun. 23, 2000
[24] = ascorbic acid 5%, third sample (undated)
[25] = ascorbic acid 10%, fourth sample (undated)
[26] = ascorbic acid 10%, sample Jun. 22, 2000
[27] = ascorbic acid 10%, sample Jun. 23, 2000
[28] = ascorbic acid 10%, third sample (undated)

## O=C1O[C@H]([C@@H](O)CO)C(O)=C1O [ascorbic acid, L-ascorbic acid]
Human cervical mucus; L-ascorbic acid from 0.31% to a range of 1-2.5%
  overall viscosity of the mucus: increased in direct relationship with increasing concentrations
Human cervical mucus; [1]
  Cellularity (cervical mucus score): 0
  Ferning (cervical mucus score): 0
  Spinnbarkiet (cervical mucus score): 1 ± .35
  Viscosity (cervical mucus score): 2 ± .79
  TOTAL cervical mucus score: 3.2
Human cervical mucus; [2]
  Cellularity (cervical mucus score): 2 ± .86
  Ferning (cervical mucus score): 2 ± .86
  Spinnbarkiet (cervical mucus score): 0 (less than 1 cm)
  Viscosity (cervical mucus score): 3 ± .79
  TOTAL cervical mucus score: 7.3
Human cervical mucus; [3]
  Cellularity (cervical mucus score): 2 ± .58
  Ferning (cervical mucus score): 0
  Spinnbarkeit (cervical mucus score): 1 ± .35
  Viscosity (cervical mucus score): 3 ± .79
  TOTAL cervical mucus score: 6.2
Human cervical mucus; [4]
  Cellularity (cervical mucus score): 1 ± .58
  Ferning (cervical mucus score): 0
  Spinnbarkeit (cervical mucus score): 0 (less than 1 cm)
  Viscosity (cervical mucus score): 2 ± .79
  TOTAL cervical mucus score: 3.15
Human cervical mucus; [5]
  Cellularity (cervical mucus score): 0
  Ferning (cervical mucus score): 3 ± .86
  Spinnbarkiet (cervical mucus score): 1 ± .49
  Viscosity (cervical mucus score): 3 ± .81
  TOTAL cervical mucus score: 7.2
Human cervical mucus; [6]
  Cellularity (cervical mucus score): 0
  Ferning (cervical mucus score): 0
  Spinnbarkiet (cervical mucus score): 1 ± .49
  Viscosity (cervical mucus score): 1 ± .81
  TOTAL cervical mucus score: 2.3
Human cervical mucus; [7]
  Cellularity (cervical mucus score): 0
  Ferning (cervical mucus score): 0
  Spinnbarkeit (cervical mucus score): 1 ± .49
  Viscosity (cervical mucus score): 2 ± .81
  TOTAL cervical mucus score: 3.2
Human cervical mucus; [8]
  Cellularity (cervical mucus score): 1 ± .61
  Ferning (cervical mucus score): 0
  Spinnbarkeit (cervical mucus score): 1 ± .49
  Viscosity (cervical mucus score): 1 ± .81
  TOTAL cervical mucus score: 3.15
Human cervical mucus; [9]
  Cellularity (cervical mucus score): 0
  Ferning (cervical mucus score): 3 ± .82
  Spinnbarkiet (cervical mucus score): 1 ± .51
  Viscosity (cervical mucus score): 2 ± .75
  TOTAL cervical mucus score: 6.2
Human cervical mucus; [10]
  Cellularity (cervical mucus score): 2 ± .82
  Ferning (cervical mucus score): 2 ± .82
  Spinnbarkiet (cervical mucus score): 1 ± .51
  Viscosity (cervical mucus score): 1 ± .75
  TOTAL cervical mucus score: 6.3
Human cervical mucus; [11]
  Cellularity (cervical mucus score): 0
  Ferning (cervical mucus score): 0
  Spinnbarkeit (cervical mucus score): 1 ± .51
  Viscosity (cervical mucus score): 2 ± .75
  TOTAL cervical mucus score: 3.2
Human cervical mucus; [12]
  Cellularity (cervical mucus score): 0
  Ferning (cervical mucus score): 0
  Spinnbarkeit (cervical mucus score): 1 ± .51
  Viscosity (cervical mucus score): 2 ± .75
  TOTAL cervical mucus score: 3.15
Human cervical mucus; [13]
  Cellularity (cervical mucus score): 1 ± .53
  Ferning (cervical mucus score): 2 ± 1.13
  Spinnbarkiet (cervical mucus score): 1 ± 51
  Viscosity (cervical mucus score): 3 ± .95
  TOTAL cervical mucus score: 7.2
Human cervical mucus; [14]
  Cellularity (cervical mucus score): 0
  Ferning (cervical mucus score): 0
  Spinnbarkiet (cervical mucus score): 1 ± .51
  Viscosity (cervical mucus score): 1 ± .95
  TOTAL cervical mucus score: 2.3
Human cervical mucus; [15]
  Cellularity (cervical mucus score): 0
  Ferning (cervical mucus score): 0
  Spinnbarkeit (cervical mucus score): 1 ± .51
  Viscosity (cervical mucus score): 3 ± .95
  TOTAL cervical mucus score: 4.2
Human cervical mucus; [16]
  Cellularity (cervical mucus score): 1 ± .53
  Ferning (cervical mucus score): 0
  Spinnbarkeit (cervical mucus score): 0 (less than 1 cm)
  Viscosity (cervical mucus score): 1 ± .95
  TOTAL cervical mucus score: 2.15
Human cervical mucus; [17]
  Cellularity (cervical mucus score): 1 ± .49
  Ferning (cervical mucus score): 1 ± .82
  Spinnbarkiet (cervical mucus score): 1 ± .14
  Viscosity (cervical mucus score): 2 ± .61
  TOTAL cervical mucus score: 5.2
Human cervical mucus; [18]
  Cellularity (cervical mucus score): 0
  Ferning (cervical mucus score): 0
  Spinnbarkiet (cervical mucus score): 1 ± .14
  Viscosity (cervical mucus score): 2 ± .61
  TOTAL cervical mucus score: 3.3
Human cervical mucus; [19]
  Cellularity (cervical mucus score): 1 ± .49
  Ferning (cervical mucus score): 0
  Spinnbarkeit (cervical mucus score): 1 ± .14
  Viscosity (cervical mucus score): 0
  TOTAL cervical mucus score: 2.2
Human cervical mucus; [20]
  Cellularity (cervical mucus score): 1 ± .49
  Ferning (cervical mucus score): 0
  Spinnbarkeit (cervical mucus score): 0 (less than 1 cm)
  Viscosity (cervical mucus score): 1 ± .61
  TOTAL cervical mucus score: 2.15
Human cervical mucus; [21]
  Cellularity (cervical mucus score): 1 ± .66
  Ferning (cervical mucus score): 0
  Spinnbarkiet (cervical mucus score): 1 ± .35
  Viscosity (cervical mucus score): 2 ± .52
  TOTAL cervical mucus score: 4.2
Human cervical mucus; [22]
  Cellularity (cervical mucus score): 0
  Ferning (cervical mucus score): 0
  Spinnbarkiet (cervical mucus score): 1 ± .35
  Viscosity (cervical mucus score): 2 ± .52
  TOTAL cervical mucus score: 3.3
Human cervical mucus; [23]
  Cellularity (cervical mucus score): 0
  Ferning (cervical mucus score): 0
  Spinnbarkeit (cervical mucus score): 0 (less than 1 cm)
  Viscosity (cervical mucus score): 2 ± .52
  TOTAL cervical mucus score: 2.2
Human cervical mucus; [24]
  Cellularity (cervical mucus score): 0
  Ferning (cervical mucus score): 0
  Spinnbarkeit (cervical mucus score): 1 ± .35
  Viscosity (cervical mucus score): 2 ± .25
  TOTAL cervical mucus score: 2.15
Human cervical mucus; [25]
  Cellularity (cervical mucus score): 0
  Ferning (cervical mucus score): 0
  Spinnbarkiet (cervical mucus score): 0 (less than 1 cm)
  Viscosity (cervical mucus score): 0
  TOTAL cervical mucus score: 0.2
Human cervical mucus; [26]
  Cellularity (cervical mucus score): 1 ± .53
  Ferning (cervical mucus score): 1 ± .53
  Spinnbarkiet (cervical mucus score): 1 ± .26
  Viscosity (cervical mucus score): 1 ± .69
  TOTAL cervical mucus score: 4.3
Human cervical mucus; [27]
  Cellularity (cervical mucus score): 1 ± .51
  Ferning (cervical mucus score): 1 ± .53
  Spinnbarkeit (cervical mucus score): 1 ± .26
  Viscosity (cervical mucus score): 2 ± .69
  TOTAL cervical mucus score: 5.2
Human cervical mucus; [28]
  Cellularity (cervical mucus score): 1 ± .51
  Ferning (cervical mucus score): 0
  Spinnbarkeit (cervical mucus score): 1 ± .26
  Viscosity (cervical mucus score): 1 ± .69
  TOTAL cervical mucus score: 3.15

## albumin
Human sperm; 10% albumin
  sperm motility: decreased sperm motility almost close to that of 12.5 mM concentration of ferrous gluconate
Human sperm; 20% albumin
  sperm completely immobilized: ~97%
Human sperm; 40% albumin
  sperm completely immobilized: ~97%
Human sperm; lower concentrations of albumin and dextran
  spermiostatic effects: not significant

## ferrous sulfate
Human sperm; human sperm in vitro
  concentration at which spermiostatic (motility of sperm arrested): 10 mM
